Measurements as given in ChEMBL document CHEMBL4118148, “Design, synthesis and cardiovascular evaluation of some aminoisopropanoloxy derivatives of xanthone” (Bioorg Med Chem, 2018).
pIC50: −log10 of the molar value.

What was measured:
Rattus norvegicus [1] = experiment: Hypotensive activity in normotensive Wistar rat assessed as systolic blood pressure at 5 mg/kg, iv measured after 30 mins (reference value: 119.2 to 148.6 mmHg); type: functional
Rattus norvegicus [2] = experiment: Cardiotoxicity in Wistar rat assessed as effect on heart rate at 5 mg/kg, iv measured after 1 min (reference value: 323 to 374.5 bpm); type: toxicity, organism-based; conditions: in vivo
Rattus norvegicus [3] = experiment: Cardiotoxicity in Wistar rat assessed as effect on heart rate at 5 mg/kg, iv measured after 15 mins (reference value: 323 to 374.5 bpm); type: toxicity, organism-based; conditions: in vivo, 0.25 h
Rattus norvegicus [4] = experiment: Hypotensive activity in normotensive Wistar rat assessed as systolic blood pressure at 5 mg/kg, iv measured after 60 mins (reference value: 119.2 to 148.6 mmHg); type: functional
Rattus norvegicus [5] = experiment: Cardiotoxicity in Wistar rat assessed as effect on QRS interval time at 5 mg/kg, iv measured after 1 min (reference value: 16.7 to 20.7 ms); type: toxicity, organism-based; conditions: in vivo
Rattus norvegicus [6] = experiment: Cardiotoxicity in Wistar rat assessed as effect on PQ interval time at 5 mg/kg, iv measured after 15 mins (reference value: 52 to 57 ms); type: toxicity, organism-based; conditions: in vivo, 0.25 h
Rattus norvegicus [7] = experiment: Cardiotoxicity in Wistar rat assessed as effect on PQ interval time at 5 mg/kg, iv measured after 1 min (reference value: 52 to 57 ms); type: toxicity, organism-based; conditions: in vivo
Rattus norvegicus [8] = experiment: Hypotensive activity in normotensive Wistar rat assessed as diastolic blood pressure at 5 mg/kg, iv measured after 30 mins (reference value: 86.5 to 119.4 mmHg); type: functional
Rattus norvegicus [9] = experiment: Cardiotoxicity in Wistar rat assessed as effect on QRS interval time at 5 mg/kg, iv measured after 15 mins (reference value: 16.7 to 20.7 ms); type: toxicity, organism-based; conditions: in vivo, 0.25 h
Blood = experiment: Anti-aggregative activity in Wistar rat whole blood assessed as inhibition of collagen-induced aggregation preincubated for 3 mins followed by collagen induction measured for 6 mins; type: functional, tissue-based
[10] = target: T1, Adrenergic receptor alpha-1 (Rattus norvegicus, UniProt P15823+P23944+P43140); experiment: Displacement of [3H][…]prazosin from adrenergic alpha1 receptor in Wistar rat cortex incubated for 30 mins by microbeta liquid scintillation counting analysis
T1 sequence (P15823 whole entry): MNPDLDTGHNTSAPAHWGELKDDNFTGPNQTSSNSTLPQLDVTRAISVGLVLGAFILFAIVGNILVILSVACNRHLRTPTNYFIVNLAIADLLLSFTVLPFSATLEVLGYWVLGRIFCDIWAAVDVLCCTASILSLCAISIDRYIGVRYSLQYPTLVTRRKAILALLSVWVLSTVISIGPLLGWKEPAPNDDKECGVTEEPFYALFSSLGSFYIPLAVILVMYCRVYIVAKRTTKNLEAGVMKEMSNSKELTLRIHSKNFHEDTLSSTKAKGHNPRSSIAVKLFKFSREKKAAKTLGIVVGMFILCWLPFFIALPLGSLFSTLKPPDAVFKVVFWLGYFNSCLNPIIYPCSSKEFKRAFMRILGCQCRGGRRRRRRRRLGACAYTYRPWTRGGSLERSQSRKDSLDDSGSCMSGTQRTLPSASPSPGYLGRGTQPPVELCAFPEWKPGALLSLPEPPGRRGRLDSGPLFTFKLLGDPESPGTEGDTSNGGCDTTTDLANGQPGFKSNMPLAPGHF
T1 sequence (P23944 whole entry): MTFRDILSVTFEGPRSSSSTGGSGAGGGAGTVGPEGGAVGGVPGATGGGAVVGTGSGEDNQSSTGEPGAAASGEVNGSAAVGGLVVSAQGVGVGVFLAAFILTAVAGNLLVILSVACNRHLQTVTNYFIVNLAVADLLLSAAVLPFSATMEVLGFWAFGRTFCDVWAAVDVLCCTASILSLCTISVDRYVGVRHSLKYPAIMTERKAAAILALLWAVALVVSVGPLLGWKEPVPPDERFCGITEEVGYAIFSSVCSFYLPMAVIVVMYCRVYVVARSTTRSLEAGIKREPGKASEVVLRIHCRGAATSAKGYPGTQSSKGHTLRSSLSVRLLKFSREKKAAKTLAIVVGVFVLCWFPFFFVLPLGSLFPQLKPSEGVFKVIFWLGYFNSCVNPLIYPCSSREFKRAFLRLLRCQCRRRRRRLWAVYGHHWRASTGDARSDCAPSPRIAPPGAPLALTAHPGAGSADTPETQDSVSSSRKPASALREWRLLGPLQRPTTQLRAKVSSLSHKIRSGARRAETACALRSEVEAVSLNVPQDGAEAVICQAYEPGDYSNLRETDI
T1 sequence (P43140 whole entry): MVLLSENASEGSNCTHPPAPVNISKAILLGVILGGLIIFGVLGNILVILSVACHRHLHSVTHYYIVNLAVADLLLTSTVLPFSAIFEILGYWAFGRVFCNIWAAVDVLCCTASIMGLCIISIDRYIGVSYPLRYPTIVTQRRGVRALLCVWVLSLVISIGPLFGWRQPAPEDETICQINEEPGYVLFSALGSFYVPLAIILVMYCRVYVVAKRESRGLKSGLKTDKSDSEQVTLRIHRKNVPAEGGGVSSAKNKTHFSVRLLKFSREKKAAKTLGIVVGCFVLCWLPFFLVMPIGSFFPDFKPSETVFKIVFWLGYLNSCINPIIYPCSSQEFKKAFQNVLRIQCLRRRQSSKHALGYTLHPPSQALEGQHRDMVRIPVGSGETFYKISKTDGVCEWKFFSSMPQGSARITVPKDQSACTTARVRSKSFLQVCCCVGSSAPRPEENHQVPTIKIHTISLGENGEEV

Rattus norvegicus [11] = experiment: Hypotensive activity in normotensive Wistar rat assessed as systolic blood pressure at 5 mg/kg, iv measured after 20 mins (reference value: 119.2 to 148.6 mmHg); type: functional
Rattus norvegicus [12] = experiment: Cardiotoxicity in Wistar rat assessed as effect on QTC interval time at 5 mg/kg, iv measured after 1 min (reference value: 136.7 to 146.2 ms); type: toxicity, organism-based; conditions: in vivo
Rattus norvegicus [13] = experiment: Hypotensive activity in normotensive Wistar rat assessed as diastolic blood pressure at 5 mg/kg, iv measured after 60 mins (reference value: 86.5 to 119.4 mmHg); type: functional
Rattus norvegicus [14] = experiment: Cardiotoxicity in Wistar rat assessed as effect on QRS interval time at 5 mg/kg, iv measured after 5 mins (reference value: 16.7 to 20.7 ms); type: toxicity, organism-based; conditions: in vivo
Rattus norvegicus [15] = experiment: Cardiotoxicity in Wistar rat assessed as effect on PQ interval time at 5 mg/kg, iv measured after 5 mins (reference value: 52 to 57 ms); type: toxicity, organism-based; conditions: in vivo
Rattus norvegicus [16] = experiment: Hypotensive activity in normotensive Wistar rat assessed as diastolic blood pressure at 5 mg/kg, iv measured after 10 mins (reference value: 86.5 to 119.4 mmHg); type: functional
Rattus norvegicus [17] = experiment: Cardiotoxicity in Wistar rat assessed as effect on QTC interval time at 5 mg/kg, iv measured after 5 mins (reference value: 136.7 to 146.2 ms); type: toxicity, organism-based; conditions: in vivo
Rattus norvegicus [18] = experiment: Cardiotoxicity in Wistar rat assessed as effect on QT interval time at 5 mg/kg, iv measured after 5 mins (reference value: 57.7 to 61 ms); type: toxicity, organism-based; conditions: in vivo
Rattus norvegicus [19] = experiment: Cardiotoxicity in Wistar rat assessed as effect on heart rate at 5 mg/kg, iv measured after 5 mins (reference value: 323 to 374.5 bpm); type: toxicity, organism-based; conditions: in vivo

Cl.O=c1c2ccccc2oc2cc(OCC(O)CN3CCN(c4ccccn4)CC3)ccc12 (racemic)
Activity (Rattus norvegicus [1]): 108.7 mmHg
Activity (Rattus norvegicus [2]): 340.7 bpm
Activity (Rattus norvegicus [3]): 295.3 bpm
Activity (Rattus norvegicus [4]): 102.5 mmHg
Time (Rattus norvegicus [5]): 18.7 ms
Time (Rattus norvegicus [6]): 56 ms
Time (Rattus norvegicus [7]): 55.3 ms
Activity (Rattus norvegicus [8]): 79.5 mmHg
Time (Rattus norvegicus [9]): 21.3 ms
pIC50 (Blood): 4.11
inhibition (Blood): Dose-dependent effect
IC50 [10]: 355.6 nM
Activity (Rattus norvegicus [11]): 108.8 mmHg
Time (Rattus norvegicus [12]): 140.2 ms
Activity (Rattus norvegicus [13]): 74.7 mmHg
Time (Rattus norvegicus [14]): 20 ms
Time (Rattus norvegicus [15]): 54.7 ms
Activity (Rattus norvegicus [16]): 80.5 mmHg
Time (Rattus norvegicus [17]): 133.3 ms
Time (Rattus norvegicus [18]): 58.3 ms
Activity (Rattus norvegicus [19]): 313 bpm

Cl.O=c1c2ccccc2oc2c(OCC(O)CN3CCN(c4ccccn4)CC3)cccc12 (racemic)
Activity (Rattus norvegicus [1]): 126.6 mmHg
Activity (Rattus norvegicus [2]): 368.2 bpm
Activity (Rattus norvegicus [3]): 343 bpm
Activity (Rattus norvegicus [4]): 126.4 mmHg
Time (Rattus norvegicus [5]): 18.5 ms
Time (Rattus norvegicus [6]): 59 ms
Time (Rattus norvegicus [7]): 58.2 ms
Activity (Rattus norvegicus [8]): 99.8 mmHg
Time (Rattus norvegicus [9]): 19.2 ms
pIC50 (Blood): 4.19
inhibition (Blood): Dose-dependent effect
IC50 [10]: 171 nM
Activity (Rattus norvegicus [11]): 129.8 mmHg
Time (Rattus norvegicus [12]): 145.4 ms
Activity (Rattus norvegicus [13]): 96.6 mmHg
Time (Rattus norvegicus [14]): 18 ms
Time (Rattus norvegicus [15]): 58 ms
Activity (Rattus norvegicus [16]): 106 mmHg
Time (Rattus norvegicus [17]): 144.8 ms
Time (Rattus norvegicus [18]): 59.5 ms
Activity (Rattus norvegicus [19]): 356 bpm

COc1ccccc1OCCNCC(O)COc1cccc2c(=O)c3ccccc3oc12.Cl (racemic)
Activity (Rattus norvegicus [1]): 94.5 mmHg
Activity (Rattus norvegicus [2]): 307 bpm
Activity (Rattus norvegicus [3]): 308.7 bpm
Activity (Rattus norvegicus [4]): 106.2 mmHg
Time (Rattus norvegicus [5]): 19 ms
Time (Rattus norvegicus [6]): 57.3 ms
Time (Rattus norvegicus [7]): 56 ms
Activity (Rattus norvegicus [8]): 77.2 mmHg
Time (Rattus norvegicus [9]): 18.7 ms
pIC50 (Blood): 4.31
inhibition (Blood): Dose-dependent effect
IC50 [10]: 109.5 nM
Ki [10]: 875.5 nM
Activity (Rattus norvegicus [11]): 97.7 mmHg
Time (Rattus norvegicus [12]): 157.2 ms
Activity (Rattus norvegicus [13]): 80 mmHg
Time (Rattus norvegicus [14]): 19.3 ms
Time (Rattus norvegicus [15]): 58 ms
Activity (Rattus norvegicus [16]): 73 mmHg
Time (Rattus norvegicus [17]): 148.3 ms
Time (Rattus norvegicus [18]): 67.3 ms
Activity (Rattus norvegicus [19]): 296 bpm

COc1ccccc1CNCC(O)COc1cccc2c(=O)c3ccccc3oc12.Cl (racemic)
Activity (Rattus norvegicus [1]): 126 mmHg
Activity (Rattus norvegicus [2]): 246 bpm
Activity (Rattus norvegicus [3]): 265 bpm
Activity (Rattus norvegicus [4]): 125.3 mmHg
Time (Rattus norvegicus [5]): 22 ms
Time (Rattus norvegicus [6]): 57.7 ms
Time (Rattus norvegicus [7]): 60.7 ms
Activity (Rattus norvegicus [8]): 96 mmHg
Time (Rattus norvegicus [9]): 21.3 ms
pIC50 (Blood): 4.06
inhibition (Blood): Dose-dependent effect
IC50 [10]: 1870 nM
Activity (Rattus norvegicus [11]): 133 mmHg
Time (Rattus norvegicus [12]): 151.4 ms
Activity (Rattus norvegicus [13]): 94.3 mmHg
Time (Rattus norvegicus [14]): 22.7 ms
Time (Rattus norvegicus [15]): 63.3 ms
Activity (Rattus norvegicus [16]): 107 mmHg
Time (Rattus norvegicus [17]): 129.8 ms
Time (Rattus norvegicus [18]): 64.7 ms
Activity (Rattus norvegicus [19]): 243.7 bpm

COc1ccc(CCNCC(O)COc2cccc3c(=O)c4ccccc4oc23)cc1OC.Cl (racemic)
Activity (Rattus norvegicus [1]): 128 mmHg
Activity (Rattus norvegicus [2]): 262.7 bpm
Activity (Rattus norvegicus [3]): 265.7 bpm
Activity (Rattus norvegicus [4]): 129.8 mmHg
Time (Rattus norvegicus [5]): 22.8 ms
Time (Rattus norvegicus [6]): 59.3 ms
Time (Rattus norvegicus [7]): 62.7 ms
Activity (Rattus norvegicus [8]): 96.2 mmHg
Time (Rattus norvegicus [9]): 21.3 ms
Ki [10]: 274 nM
Activity (Rattus norvegicus [11]): 127 mmHg
Time (Rattus norvegicus [12]): 128.1 ms
Activity (Rattus norvegicus [13]): 98.6 mmHg
Time (Rattus norvegicus [14]): 22.7 ms
Time (Rattus norvegicus [15]): 58 ms
Activity (Rattus norvegicus [16]): 105 mmHg
Time (Rattus norvegicus [17]): 138.4 ms
Time (Rattus norvegicus [18]): 66.7 ms
Activity (Rattus norvegicus [19]): 254.7 bpm

CC(C)(C)NCC(O)COc1cccc2c(=O)c3ccccc3oc12.Cl (racemic)
pIC50 (Blood): 4.48
inhibition (Blood): Dose-dependent effect
Ki [10]: 814 nM

COc1ccccc1CCNCC(O)COc1cccc2c(=O)c3ccccc3oc12.Cl (racemic)
Activity (Rattus norvegicus [1]): 126 mmHg
Activity (Rattus norvegicus [2]): 356 bpm
Activity (Rattus norvegicus [3]): 390.5 bpm
Activity (Rattus norvegicus [4]): 117 mmHg
Time (Rattus norvegicus [5]): 18 ms
Time (Rattus norvegicus [6]): 51 ms
Time (Rattus norvegicus [7]): 52 ms
Activity (Rattus norvegicus [8]): 97.2 mmHg
Time (Rattus norvegicus [9]): 17 ms
pIC50 (Blood): 4.48
inhibition (Blood): Dose-dependent effect
IC50 [10]: 349.8 nM
Ki [10]: 4676 nM
Activity (Rattus norvegicus [11]): 128.2 mmHg
Time (Rattus norvegicus [12]): 149.3 ms
Activity (Rattus norvegicus [13]): 89.6 mmHg
Time (Rattus norvegicus [14]): 19 ms
Time (Rattus norvegicus [15]): 52.5 ms
Activity (Rattus norvegicus [16]): 101.8 mmHg
Time (Rattus norvegicus [17]): 148.2 ms
Time (Rattus norvegicus [18]): 61 ms
Activity (Rattus norvegicus [19]): 336 bpm
